Several values for one entry are separate records, joined by “and”; a condition that tells them apart may be missing. Identical values can stand only once.
Legend:
[1] = system: unfolded protein response (UPR) mRNAs; assay: qRT-PCR of UPR-associated mRNAs in MDAMB231 cells; format: cell-based; conditions: 1 μM, 0-48 hours, fold relative to DMSO
Protocol: To evaluate the effect of PROTAC 7 (Pr-7) on expression of various proapoptotic polypeptides, triple negative MDAMB231 cells were treated with DMSO, 1 μM Pr-7, or 1 μM ENDX, and mRNA levels were assessed by qRT-PCR at 0-, 1-, 8-, 24-, and 48-hour time points.
Triple negative breast cancer MDA-MB-231 cells were cultured in phenol-red free DMEM/F12 medium supplemented with 10% FBS and 1% AA. Cells were plated at 1×10^6 cells per 10 cm dish. The next day, the cells were treated with DMSO, 1 μM Pr-7 or 1 μM ENDX for 1, 8, 24, and 48 hours, and were then processed for RNA and RIPA protein analysis.
In particular, total RNA from tissue samples and cell lines was extracted using the RNEASY® Plus mini kit (Qiagen; Hilden, Germany), cDNA was generated using a ISCRIPT™ cDNA synthesis kit (Bio-Rad; Hercules, CA) and qRT-PCR reactions were set up using PERFECTA® SYBR™ green fast mix reagents (Quanta BioSciences; Beverly, MA) and gene-specific primer sets (IDT; Coralville, IA). The forward and reverse primer sequences for the genes used in this analysis were obtained from the Harvard PrimerBank database. Amplification of HPRT and tubulin was used as an internal control. Relative expression between samples was calculated by the comparative Ct method.

[2] = Pharmacokinetics in mice, plasma by UPLC-MS/MS; format: in vivo, female CD1 mice; conditions: for Concentration ENDX PROTAC 7: mouse plasma
Protocol: ENDX PROTAC 7 and PROTAC 9 pharmacokinetics were characterized in female CD1 mice. Blood samples were collected from mice anesthetized under isoflurane via retro-orbital eye bleed into tubes containing EDTA and immediately chilled on ice. NaF was added to the EDTA collection tubes to help stabilize the drug in whole blood for the second IV and IP studies with ENDX PROTAC 9, and for the IV and oral studies with PROTAC 7. Plasma and red blood cells were separated immediately by centrifugation in a refrigerated centrifuge at 4° C. The plasma was transferred to a separate tube and immediately frozen at −20° C.
For IV dosing, ENDX PROTAC 9 was dissolved in 10% DMSO, 10% PEG 400, and 80% normal saline for a final concentration of 0.2 mg/mL ENDX PROTAC 9 for the 1 mg/kg IV doses. ENDX PROAC 7 was dissolved in 15% DMSO, 9.44% PEG400, and […] normal saline for a final concentration of 0.19 mg/mL for the 1 mg/kg IV doses. Blood samples (3 mice per time-point) were collected 5 minutes, 15 minutes, 0.5 hour, 1 hour, 2 hours, 4 hours, 8 hours, and 24 hours after administration of the ENDX PROTAC. A second IV study was performed for ENDX PROTAC 9 in which blood samples (3 mice per time-point) were collected 5 minutes, 15 minutes, 1 hour, and 2 hours after administration of ENDX PROTAC 9. For oral dosing, ENDX PROTAC 9 (10 mg/kg) and ENDX PROTAC 7 (10 mg/kg) were suspended in 1 mM ascorbic acid:PEG400, 1:1 v/v for a final concentration of 1.0 mg/mL ENDX PROTAC. Blood samples (three mice per time-point) were collected 15 minutes, 0.5 hour, 1 hour, 2 hours, 4 hours, 6 hours, 8 hours, and 24 hours after administering the ENDX PROTAC. For LP. dosing, ENDX PROTAC 9 (4 mg/kg) was prepared in 1 mM ascorbic acid:PEG400, 1:1 v/v for a final concentration of 0.4 mg/mL ENDX PROTAC 9. Blood samples (three mice per time-point) were collected 15 minutes, 0.5 hour, 1 hour, 2 hours, 4 hours, 6 hours, 8 hours, and 24 hours after administration. Plasma concentrations of ENDX PROTAC 7 and 9 were measured using UPLC-MS/MS.

[3] = mice, oral 10 mg/kg, NaF in tubes

Concentration ENDX PROTAC 7 ([2]; IV (1 mg/kg), 120 minutes, listed as ENDX PROTAC 7, 1 mg/kg): 8.35 ng/mL and 9.53 ng/mL and 8.69 ng/mL | Concentration ENDX PROTAC 7 ([2]; PO (10 mg/kg), 15 minutes, listed as ENDX PROTAC 7, 10 mg/kg): 0.75 ng/mL and 0.7 ng/mL and 0.93 ng/mL | Concentration ENDX PROTAC 7 ([2]; PO (10 mg/kg), 30 minutes, listed as ENDX PROTAC 7, 10 mg/kg): 0.64 ng/mL and 0.81 ng/mL and 0.83 ng/mL | Concentration ENDX PROTAC 7 ([2]; PO (10 mg/kg), 360 minutes, listed as ENDX PROTAC 7, 10 mg/kg): 0.53 ng/mL and 0.4 ng/mL and 0.44 ng/mL | Concentration ENDX PROTAC 7 ([2]; PO (10 mg/kg), 480 minutes, listed as ENDX PROTAC 7, 10 mg/kg): 0.69 ng/mL and 0.37 ng/mL and 0.4 ng/mL | elimination half-life ([2]; mice, I.V. 1 mg/kg, NaF in tubes): 5 h | peak plasma concentration ([2]; mice, IV 1 mg/kg, NaF in tubes): 129.7 ng/mL | time of peak plasma concentration ([2]; mice, IV 1 mg/kg, NaF in tubes): ≤ 5 min | Oral bioavailability ([2]; mice, oral 10 mg/kg vs IV 1 mg/kg, NaF in tubes): 0.85% | peak plasma concentration [2, 3]: 1.24 ng/mL | time of peak plasma concentration [2, 3]: ≤ 60 min
SMILES: CC/C(=C(\c1ccc(O)cc1)c1ccc(OCCN(C)C(=O)COCCNC(=O)Cc2ccc3c(c2)CN(C2CCC(=O)NC2=O)C3=O)cc1)c1ccccc1 (centres unmarked) [TC-Pr-007]
mRNA expression of UPR-associated genes [1]: increased mRNA expression for CHOP, MCL-1, PUMA, NOXA, and Xbp-1 | Concentration ENDX PROTAC 7 ([2]; IV (1 mg/kg), 15 minutes, listed as ENDX PROTAC 7, 1 mg/kg): 37.27 ng/mL and 57.95 ng/mL and 30.96 ng/mL | Concentration ENDX PROTAC 7 ([2]; IV (1 mg/kg), 30 minutes, listed as ENDX PROTAC 7, 1 mg/kg): 10.89 ng/mL and 19.85 ng/mL and 16.62 ng/mL

Source: patent publication US20240058318A1, “DEGRADING PKCB1 TO TREAT CANCER” (Mayo Foundation for Medical Education and Research, priority 2020, published 2024)
